Measurements as given in patent US10233173B2, “Substituted 1,2,3-triazoles as NR2B-selective NMDA modulators” (JANSSEN PHARMACEUTICA NV, priority 2016, dated 2019).

Molecular target: human GluN1/GluN2B NMDA receptors (Homo sapiens, UniProt Q05586+Q13224)
Assay: Cell-based calcium flux (FLIPR) assay on cloned human NR1/NR2B ion channels expressed in mammalian cells
Settings: standard assay; glutamate at ~EC80; FLIPR calcium flux
Summary of the method: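 Calcium influx followed by FLIPR fluorescence after 5 min compound exposure and a further 5 min co-agonist challenge: 10 μM glycine with glutamate at ~EC80 (standard) or EC40 (HTS).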

Chain of human GluN1/GluN2B NMDA receptors (Q13224 27-1484, other chains not shown): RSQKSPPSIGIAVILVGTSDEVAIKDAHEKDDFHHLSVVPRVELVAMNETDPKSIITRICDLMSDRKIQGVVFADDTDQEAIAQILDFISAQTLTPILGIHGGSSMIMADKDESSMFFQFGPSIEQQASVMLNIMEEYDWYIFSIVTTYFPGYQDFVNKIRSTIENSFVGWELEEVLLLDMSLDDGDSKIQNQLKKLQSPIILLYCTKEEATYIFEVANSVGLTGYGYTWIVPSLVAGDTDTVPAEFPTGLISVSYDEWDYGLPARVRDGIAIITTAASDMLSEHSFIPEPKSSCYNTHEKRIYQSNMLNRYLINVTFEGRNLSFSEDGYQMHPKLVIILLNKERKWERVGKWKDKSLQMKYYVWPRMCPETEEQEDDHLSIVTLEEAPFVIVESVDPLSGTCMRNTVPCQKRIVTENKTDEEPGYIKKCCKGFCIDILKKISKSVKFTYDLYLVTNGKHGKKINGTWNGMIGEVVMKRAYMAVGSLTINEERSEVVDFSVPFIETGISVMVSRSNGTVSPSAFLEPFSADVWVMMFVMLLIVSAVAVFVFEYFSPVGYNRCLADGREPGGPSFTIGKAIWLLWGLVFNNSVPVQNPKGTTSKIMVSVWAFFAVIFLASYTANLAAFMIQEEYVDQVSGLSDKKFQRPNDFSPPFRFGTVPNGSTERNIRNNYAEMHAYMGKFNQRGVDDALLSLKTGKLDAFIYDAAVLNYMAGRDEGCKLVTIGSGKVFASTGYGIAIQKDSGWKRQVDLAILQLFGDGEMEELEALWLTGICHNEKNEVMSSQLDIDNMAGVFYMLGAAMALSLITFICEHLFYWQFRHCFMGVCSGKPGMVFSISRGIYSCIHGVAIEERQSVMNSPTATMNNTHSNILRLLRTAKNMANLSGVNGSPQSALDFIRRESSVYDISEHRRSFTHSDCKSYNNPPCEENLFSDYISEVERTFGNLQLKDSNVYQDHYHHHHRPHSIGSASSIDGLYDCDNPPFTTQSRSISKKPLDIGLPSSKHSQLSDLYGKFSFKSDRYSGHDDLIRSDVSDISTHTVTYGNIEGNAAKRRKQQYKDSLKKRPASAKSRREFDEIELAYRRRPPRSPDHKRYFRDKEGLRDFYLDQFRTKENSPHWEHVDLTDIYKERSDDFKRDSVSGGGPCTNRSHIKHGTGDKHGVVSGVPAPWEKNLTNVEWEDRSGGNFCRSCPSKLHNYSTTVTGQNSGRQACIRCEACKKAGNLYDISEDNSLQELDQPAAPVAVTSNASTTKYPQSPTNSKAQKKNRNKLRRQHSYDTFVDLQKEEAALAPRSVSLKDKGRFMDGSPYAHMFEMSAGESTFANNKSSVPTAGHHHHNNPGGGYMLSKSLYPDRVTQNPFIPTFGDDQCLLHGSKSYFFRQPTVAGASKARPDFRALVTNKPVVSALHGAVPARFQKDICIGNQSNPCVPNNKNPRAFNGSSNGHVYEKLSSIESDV

Compound	IC50 [µM]
Cc1ccnc(OCc2cn(-c3ccc(Cl)c(C(C)(F)F)c3)nn2)n1 [Example 531, 2-[[1-[4-Chloro-3-(1,1-difluoroethyl)phenyl]triazol-4-yl]methoxy]-4-methyl-pyrimidine]	0.017
CNc1nc(OCc2cn(-c3ccc(F)c(C(F)(F)F)c3)nn2)ncc1F [Example 451, 5-Fluoro-2-[[1-[4-fluoro-3-(trifluoromethyl)phenyl]triazol-4-yl]methoxy]-N-methyl-pyrimidin-4-amine]	0.298
CC(=O)c1cnc(OCc2cn(-c3ccc(C)c(OC(F)F)c3)nn2)nc1 [Example 522, 1-[2-[[1-[3-(Difluoromethoxy)-4-methyl-phenyl]triazol-4-yl]methoxy]pyrimidin-5-yl]ethanone]	0.093
Fc1ccc(-n2cc(COc3nccc(-c4ccccc4)n3)nn2)cc1OC(F)F [Example 506, 2-[[1-[3-(Difluoromethoxy)-4-fluoro-phenyl]triazol-4-yl]methoxy]-4-phenyl-pyrimidine]	9.75
CC(F)(F)c1cc(-n2cc(COc3nccc(CO)n3)nn2)ccc1F [Example 568, [2-[[1-[3-(1,1-Difluoroethyl)-4-fluoro-phenyl]triazol-4-yl]methoxy]pyrimidin-4-yl]methanol]	0.025
Fc1cnc(OCc2cn(-c3ccc(F)c(OC(F)F)c3)nn2)nc1 [Example 492, 2-[[1-[3-(Difluoromethoxy)-4-fluoro-phenyl]triazol-4-yl]methoxy]-5-fluoro-pyrimidine]	0.026
Cc1nc(OCc2cn(-c3ccc(F)c(C(C)(F)F)c3)nn2)ncc1F [Example 575, 2-[[1-[3-(1,1-Difluoroethyl)-4-fluoro-phenyl]triazol-4-yl]methoxy]-5-fluoro-4-methyl-pyrimidine]	0.006
Cc1nc(OCc2cn(-c3ccc(Cl)c(C(C)(F)F)c3)nn2)ncc1Cl [Example 543, 5-Chloro-2-[[1-[4-chloro-3-(1,1-difluoroethyl)phenyl]triazol-4-yl]methoxy]-4-methyl-pyrimidine]	0.015
CCOCc1ccnc(OCc2cn(-c3ccc(F)c(OC(F)F)c3)nn2)n1 [Example 711, 2-((1-(3-(Difluoromethoxy)-4-fluorophenyl)-1H-1,2,3-triazol-4-yl)methoxy)-4-(ethoxymethyl)pyrimidine]	0.043
Cc1cccc(-n2cc(COc3ncc(Cl)c(C)n3)nn2)c1F [Example 470, 5-Chloro-2-[[1-(2-fluoro-3-methyl-phenyl)triazol-4-yl]methoxy]-4-methyl-pyrimidine]	0.659

Same assay, conditions: standard assay; human GluN1/GluN2B, calcium flux (FLIPR), glutamate ~EC80

Compound	IC50 [µM]
CCc1cnc(OCc2cn(-c3ccc(OC(F)F)cc3)nn2)nc1 [Example 334, 2-[[1-[4-(Difluoromethoxy)phenyl]triazol-4-yl]methoxy]-5-ethyl-pyrimidine]	0.051
FC(F)Oc1ccc(-n2cc(COc3ncc(Cl)cn3)nn2)cc1 [Example 332, 5-Chloro-2-[[1-[4-(difluoromethoxy)phenyl]triazol-4-yl]methoxy]pyrimidine]	0.2
CCc1cnc(OCc2cn(-c3ccc(F)c(C(F)(F)F)c3)nn2)nc1 [Example 72, 5-Ethyl-2-[[1-[4-fluoro-3-(trifluoromethyl)phenyl]triazol-4-yl]methoxy]pyrimidine]	0.01
FC(F)c1cccc(-n2cc(COc3ncc(C(F)(F)F)cn3)nn2)c1 [Example 275, 2-[[1-[3-(Difluoromethyl)phenyl]triazol-4-yl]methoxy]-5-(trifluoromethyl)pyrimidine]	0.025
Cc1nc(OCc2cn(-c3ccc4c(c3)OC(F)(F)O4)nn2)ncc1F [Example 357, 2-[[1-(2,2-Difluoro-1,3-benzodioxol-5-yl)triazol-4-yl]methoxy]-5-fluoro-4-methyl-pyrimidine]	0.35
Fc1ccc(-n2cc(COc3ncc(C(F)(F)F)cn3)nn2)cc1OC(F)F [Example 62, 2-[[1-[3-(Difluoromethoxy)-4-fluoro-phenyl]triazol-4-yl]methoxy]-5-(trifluoromethyl)pyrimidine]	0.007
